The target of experiment [1] is T1, Epidermal growth factor receptor (Homo sapiens, UniProt P00533). Description: biochemical. It is filed as cell-based.
A short description of a further experiment: cells. It is filed as cell-based. As to conditions: Homo sapiens, U-937.
The next experiment deals with MDA-MB-231. Description: cells. The format is functional. The conditions noted are these: Homo sapiens, MDA-MB-231, 48 h.
For a further experiment, the species on record is Homo sapiens. As to conditions: at 10 µM.
Experiment [2] deals with T1, Epidermal growth factor receptor. As to conditions: at 150 nM.

Some results are limits rather than exact numbers.

A word on the IC50: it is the point on the concentration scale where inhibition reaches its midpoint. What is called GI50 is the concentration giving 50% growth inhibition. Read a high GI50 as less potent growth inhibition. Usually inhibition stands for how much of the control response was suppressed.

T1 sequence (P00533 whole entry): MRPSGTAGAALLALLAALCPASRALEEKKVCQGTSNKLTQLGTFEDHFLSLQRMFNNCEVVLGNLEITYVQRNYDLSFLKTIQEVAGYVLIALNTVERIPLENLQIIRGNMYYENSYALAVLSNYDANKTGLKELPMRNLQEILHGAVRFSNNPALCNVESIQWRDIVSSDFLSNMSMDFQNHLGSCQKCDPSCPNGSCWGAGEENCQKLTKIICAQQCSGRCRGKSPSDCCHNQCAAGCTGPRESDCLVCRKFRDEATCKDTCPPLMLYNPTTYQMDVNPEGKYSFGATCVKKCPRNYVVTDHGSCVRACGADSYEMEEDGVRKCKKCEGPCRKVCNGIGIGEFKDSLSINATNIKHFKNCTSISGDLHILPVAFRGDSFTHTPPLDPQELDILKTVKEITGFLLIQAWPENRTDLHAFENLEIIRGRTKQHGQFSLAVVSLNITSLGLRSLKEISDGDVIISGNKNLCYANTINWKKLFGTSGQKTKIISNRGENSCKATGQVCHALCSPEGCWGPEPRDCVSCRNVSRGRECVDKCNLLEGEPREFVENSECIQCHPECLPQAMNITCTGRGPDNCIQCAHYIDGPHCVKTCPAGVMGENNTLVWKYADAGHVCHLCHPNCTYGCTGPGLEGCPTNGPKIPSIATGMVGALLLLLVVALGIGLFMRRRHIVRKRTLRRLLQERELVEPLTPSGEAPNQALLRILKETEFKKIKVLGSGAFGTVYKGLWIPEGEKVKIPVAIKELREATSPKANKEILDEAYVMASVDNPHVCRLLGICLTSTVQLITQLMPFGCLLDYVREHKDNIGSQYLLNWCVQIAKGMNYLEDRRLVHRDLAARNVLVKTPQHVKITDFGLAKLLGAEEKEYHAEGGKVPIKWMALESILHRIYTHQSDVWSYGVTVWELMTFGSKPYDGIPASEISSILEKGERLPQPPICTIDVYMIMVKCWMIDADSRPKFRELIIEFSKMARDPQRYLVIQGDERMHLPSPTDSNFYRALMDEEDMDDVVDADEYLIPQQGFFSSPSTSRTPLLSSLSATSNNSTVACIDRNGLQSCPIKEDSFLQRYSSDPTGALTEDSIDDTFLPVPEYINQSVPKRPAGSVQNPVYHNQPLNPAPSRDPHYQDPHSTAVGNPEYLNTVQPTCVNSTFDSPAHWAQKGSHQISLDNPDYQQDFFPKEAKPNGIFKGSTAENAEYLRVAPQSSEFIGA
Description for Homo sapiens: Inhibition of TNFalpha-stimulated NF-kappaB (unknown origin) expressed in human U937 cells at 10 uM incubated for 3 hrs followed by TNFalpha stimulation measured after 2.5 hrs by luciferase reporter gene assay
Description for MDA-MB-231: Growth inhibition of human MDA-MB-231 cells after 48 hrs by MTT assay

Consider `S=C(Nc1ccc(Cl)c(Cl)c1)Nc1ccc2ncnc(Nc3cccc(Br)c3)c2c1`, for which the IC50 was 133 nM in experiment [1] and 1900 nM in the experiment “cells”. The molecule further had a GI50 in the experiment with MDA-MB-231 of 4.8 µM. Further, the inhibition in the experiment listed under Homo sapiens amounted to 97.2%; in experiment [2] it was 52.9%.
In the case of `Oc1ccc(NC(=S)Nc2ccc3ncnc(Nc4cccc(Br)c4)c3c2)cc1`, the IC50 in experiment [1] came to 8.9 nM; in the experiment “cells” it was 6400 nM. This molecule returned a GI50 in the experiment with MDA-MB-231 of 17.3 µM. For the same molecule, the inhibition in the experiment listed under Homo sapiens was found to be 85.3%; in experiment [2] it was 91.5%.
For the molecule `FC(F)(F)c1cc(NC(=S)Nc2ccc3ncnc(Nc4cccc(Br)c4)c3c2)ccc1Cl`, the IC50 in experiment [1] was > 150 nM; in “cells” it was 1700 nM. The 50% growth inhibitory concentration (GI50) with MDA-MB-231 is 1.1 µM. The values for the inhibition (in the experiment listed under Homo sapiens; in experiment [2]) were 99% and 44%, respectively.
Consider `FC(F)(F)c1cccc(NC(=S)Nc2ccc3ncnc(Nc4cccc(Br)c4)c3c2)c1`, for which the IC50 in experiment [1] was found to be 60.7 nM; in the experiment “cells” it was 1000 nM. The same molecule gave a GI50 in the experiment with MDA-MB-231 of 1.4 µM. Also, the inhibition in the experiment filed under Homo sapiens is 96.5%; in experiment [2] it was 57.5%.
In experiment [1], `CNC(=S)Nc1ccc2ncnc(Nc3cccc(Br)c3)c2c1` came in with an IC50 of 9.1 nM. Moreover, the GI50 in the experiment on MDA-MB-231 is > 30 µM. The inhibition in the experiment filed under Homo sapiens worked out at 3%; in experiment [2], 92.2%.
`S=C(NCc1ccccc1)Nc1ccc2ncnc(Nc3ccccc3Br)c2c1`: the figures for the IC50 (in experiment [1]; in “cells”) were > 150 nM and 6500 nM, respectively. The GI50 with MDA-MB-231 is > 30 µM. Further, the inhibition stood at 85.7% in the experiment filed under Homo sapiens and 13.1% in experiment [2].
On the same counts, the results for `FC(F)(F)c1cc(NC(=S)Nc2ccc3ncnc(Nc4cccc(Br)c4)c3c2)cc(C(F)(F)F)c1` are > 150 nM, 1900 nM, 0.8 µM, 100% and 32.3%.
Regarding `O=C(Nc1ccc(Cl)cc1)Nc1ccc2ncnc(Nc3cccc(Br)c3)c2c1`, in experiment [1], the concentration for half-maximal inhibition (IC50) was found to be 19.3 nM. In the experiment on MDA-MB-231, this molecule returned a GI50 of 10 µM. Further, the inhibition in the experiment filed under Homo sapiens was 50.3%; in experiment [2] it was 69%.
On to `S=C(Nc1ccc2ncnc(Nc3cccc(Br)c3)c2c1)Nc1ccccc1Cl`, for which the IC50 in experiment [1] is 15.8 nM; in “cells”, 3500 nM. This molecule had a GI50 in the experiment with MDA-MB-231 of 8.5 µM. In addition, the figures for the inhibition (in the experiment filed under Homo sapiens; in experiment [2]) were 95.8% and 84.3%, respectively.
For the molecule `S=C(NCc1ccccc1)Nc1ccc2ncnc(Nc3cccc(Cl)c3)c2c1`, half-maximal inhibition in the experiment “cells” (IC50) required 3700 nM. The molecule also gave a GI50 in the experiment with MDA-MB-231 of 7.3 µM. The same molecule displayed an inhibition in the experiment filed under Homo sapiens of 89.7%.
Regarding `S=C(NCc1ccccc1)Nc1ccc2ncnc(Nc3ccc(Oc4ccccc4)cc3)c2c1`, the IC50 in experiment [1] was > 150 nM. The molecule also gave a GI50 in the experiment with MDA-MB-231 of 6.8 µM. Moreover, the inhibition was 73.7% in the experiment listed under Homo sapiens and 21.9% in experiment [2].
For the molecule `Oc1cccc(Nc2ncnc3ccc(NC(=S)NCc4ccccc4)cc23)c1`, in experiment [1], the IC50 came to 63.6 nM. Also, the GI50 in the experiment with MDA-MB-231 is > 30 µM. Moreover, the results for the inhibition (in the experiment filed under Homo sapiens; in experiment [2]) were 44.3% and 60.8%, respectively.
As to `S=C(Nc1ccc(Cl)cc1)Nc1ccc2ncnc(Nc3cccc(Br)c3)c2c1`, the IC50 worked out at 19.5 nM in experiment [1] and 4900 nM in the experiment “cells”. This molecule also displayed a GI50 in the experiment with MDA-MB-231 of 8.2 µM. Also, the inhibition in the experiment listed under Homo sapiens was 89.5%; in experiment [2], 79.6%.
With `NS(=O)(=O)c1ccc(Nc2ncnc3ccc(NC(=S)NCc4ccccc4)cc23)cc1`, in experiment [1], the IC50 was > 150 nM. Besides, the GI50 in the experiment on MDA-MB-231 is > 30 µM. Moreover, the values for the inhibition (in the experiment filed under Homo sapiens; in experiment [2]) were 19.2% and 17.7%, respectively.
In experiment [1], `C=CC(=O)Nc1ccc2ncnc(Nc3ccc(Br)cc3F)c2c1` had an IC50 of 2.1 nM. The molecule further yielded an inhibition in the experiment filed under Homo sapiens of 73.6%.
The like results for `O=C(Nc1ccc2ncnc(Nc3cccc(Br)c3)c2c1)c1ccco1` were, in that order, 8.4 nM and 39.4%.
Consider `C=CC(=O)Nc1ccc2ncnc(Nc3cccc(C)c3F)c2c1`, for which the IC50 in experiment [1] turned out to be 1.5 nM. In the experiment listed under Homo sapiens, this molecule came in with an inhibition of 70%.
For the molecule `N=C(N)NS(=O)(=O)c1ccc(Nc2ncnc3ccc(NC(=S)NCc4ccccc4)cc23)cc1`, the IC50 in experiment [1] is > 150 nM. Also, the GI50 with MDA-MB-231 is > 30 µM. The results for the inhibition (in the experiment filed under Homo sapiens; in experiment [2]) were 21.7% and 6.7%, respectively.
The like results for `NS(=O)(=O)c1ccc(NC(=S)Nc2ccc3ncnc(Nc4cccc(Br)c4)c3c2)cc1` were, in that order, 9.5 nM, > 30 µM, 29% and 92.3%.
On the same counts, the results for `Cc1cccc(Nc2ncnc3ccc(NC(=S)NCc4ccccc4)cc23)c1C` are > 150 nM, 28.7 µM, 71.5% and 40%.
On the same counts, the results for `O=S(=O)(Nc1ccccn1)c1ccc(Nc2ncnc3ccc(NC(=S)NCc4ccccc4)cc23)cc1` are > 150 nM, > 30 µM, 6.6% and 20.9%.
In the case of `O=S(=O)(Nc1nccs1)c1ccc(NC(=S)Nc2ccc3ncnc(Nc4cccc(Br)c4)c3c2)cc1`, the IC50 in experiment [1] came to 22 nM. Moreover, the GI50 in the experiment with MDA-MB-231 is > 30 µM. In addition, the inhibition in the experiment listed under Homo sapiens came out at 16.5%; in experiment [2], 81.7%.
On the same counts, the results for `S=C(NCCN1CCOCC1)Nc1ccc2ncnc(Nc3cccc(Br)c3)c2c1` are 10.7 nM, > 30 µM, 20.9% and 91.8%.
In experiment [1], `S=C(NCc1ccc(Cl)cc1)Nc1ccc2ncnc(Nc3cccc(Br)c3)c2c1` returned a 50% inhibitory concentration (IC50) of 28.3 nM. For the same molecule, the GI50 with MDA-MB-231 turned out to be 23 µM. Also, the inhibition in the experiment filed under Homo sapiens was determined as 78.6%; in experiment [2], 77.5%.
On the same counts, the results for `Oc1ccc(Nc2ncnc3ccc(NC(=S)NCc4ccccc4)cc23)cc1` are > 150 nM, 27 µM, 24.1% and 44.1%.
Consider `S=C(NCc1ccccc1)Nc1ccc2ncnc(Nc3cccnc3)c2c1`, for which the IC50 in experiment [1] is > 150 nM. For the same molecule, halving of growth with MDA-MB-231 (GI50) required 17.9 µM. The inhibition stood at 7.7% in the experiment filed under Homo sapiens and 38.5% in experiment [2].
Turning to `Fc1c(NC(=S)Nc2ccc3ncnc(Nc4cccc(Br)c4)c3c2)cccc1C(F)(F)F`, the IC50 in the experiment “cells” was 1300 nM. In addition, the GI50 in the experiment on MDA-MB-231 was 0.4 µM. Besides, the inhibition in the experiment listed under Homo sapiens is 98%.
In experiment [1], `Cc1cccc(Nc2ncnc3ccc(NC(=S)NCc4ccccc4)cc23)c1` came in with an IC50 of 36.8 nM. Also, the GI50 in the experiment with MDA-MB-231 was determined as 19.5 µM. Besides, the inhibition was found to be 76.4% in the experiment listed under Homo sapiens and 68.5% in experiment [2].
In the experiment filed under Homo sapiens, `COc1ccc(C(=O)Nc2ccc3ncnc(Nc4cccc(Br)c4)c3c2)cc1` had an inhibition of 33.2%.
Molecule `S=C(Nc1cccnc1)Nc1ccc2ncnc(Nc3cccc(Br)c3)c2c1` yielded a half-inhibitory concentration (IC50) in experiment [1] of 10.2 nM. In addition, the GI50 in the experiment on MDA-MB-231 is > 30 µM. The inhibition in the experiment filed under Homo sapiens came to 42.4%; in experiment [2], 90.4%.
On the same counts, the results for `S=C(Nc1ccc2ncnc(Nc3cccc(Br)c3)c2c1)N1CCOCC1` are 26.9 nM, > 30 µM, 40.1% and 84%.
In experiment [1], `O=C(NCc1ccccc1)Nc1ccc2ncnc(Nc3cccc(Br)c3)c2c1` returned an IC50 of 8.9 nM. In addition, in the experiment on MDA-MB-231, the GI50 was > 30 µM. Also, the inhibition in the experiment listed under Homo sapiens turned out to be 42.6%; in experiment [2], 89.9%.

The values are drawn from ChEMBL document CHEMBL4007489, “First Bispecific Inhibitors of the Epidermal Growth Factor Receptor Kinase and the NF-κB Activity As Novel Anticancer Agents” (J Med Chem, 2017).
